According to patent US9895346B2, “Applications of substituent benzyloxy group containing ether compounds for preparing antitumor drugs” (Sinochem Corporation, priority 2013, dated 2018):

What was measured:
Format in all cases: cell-based, human
[1] = test system: prostate cancer cell line PC-3; assay: In vitro cell inhibition assay (crystal violet), prostate cancer PC-3
Text: (§1) In vitro Cell inhibition assay is as follows:
(§2) The human cancer cell lines used for this assay were bladder cancer J82, T24, prostate cancer LNCap, PC-3, lung cancer A549, H157, H460, H520, colon cancer HCT8, HCT116, RkO, and leukemia HL-60, etc.
(§3) In vitro cell culture technology was selected for the determination of inhibition rate bladder cancer cell lines J82 and T24, prostate cancer cell lines LNCap and PC-3, lung cancer cell lines A549, H157, H460 and H520. 1000 to 3000 cells were inoculated to 24-well plate, followed by addition of 1 mL culture medium well known to researchers in this field to each well, the cells were cultured in 5% incubator for 24 hours at 37° C., then the different concentration compounds and controls were added to each well. It should be noted that the added volume is not more than 0.5% of total volume. After completion of addition, the cells continued being cultured in incubator for one week, the culture medium was removed and washed by cold PBS of 1 mL once, and then fixed for 10 minutes at room temperature with 1% formalin, followed by wash with PBS of 1 mL. After fixation, stain was carried out with 0.1% crystal violet for 30 minutes. 0.1% crystal violet was recycled. The stained cells were washed gently with deionized water, dried at room temperature and kepted. The inhibition rate was calculated according to the foiling equation. The controls are Selumetinib (AZD6244), Gefitinib, Cisplatin. Inhibition rate=number of left cells each treatment/number of left cells of untreated control×100%

[2] = test system: bladder cancer cell line J82; assay: In vitro cell inhibition assay (crystal violet), bladder cancer J82
Text: as §1, §2, §3

[3] = test system: prostate cancer cell line LNCap; assay: In vitro cell inhibition assay (crystal violet), prostate cancer LNCap
Text: as §1, §2, §3

[4] = test system: bladder cancer cell line T24; assay: In vitro cell inhibition assay (crystal violet), bladder cancer T24
Text: as §1, §2, §3

[5] = test system: lung cancer cell line A549; assay: In vitro cell inhibition assay (crystal violet), lung cancer A549
Text: as §1, §2, §3

[6] = test system: lung cancer cell line H520; assay: In vitro cell inhibition assay (crystal violet), lung cancer H520
Text: as §1, §2, §3

colon cancer HCT8 = assay: In vitro cell inhibition assay, colon cancer HCT8
Text: as §1, §2

colon cancer RkO = assay: In vitro cell inhibition assay, colon cancer RkO
Text: as §1, §2

colon cancer HCT116 = assay: In vitro cell inhibition assay, colon cancer HCT116
Text: as §1, §2

[7] = test system: lung cancer cell line H460; assay: In vitro cell inhibition assay (crystal violet), lung cancer H460
Text: as §1, §2, §3

CO/C=C(/C(=O)OC)c1ccccc1Oc1cc(Oc2ccccc2C#N)ncn1 [Azoxystrobin]
0%: Inhibition rate on human cancer cells ([1]; PC-3, 5.0 μM) | Inhibition rate on human cancer cells ([2]; J82, 5.0 μM) | Inhibition rate on human cancer cells ([3]; 5.0 μM) | Inhibition rate on human cancer cells ([4]; T24, 5.0 μM)

N.N.[Cl][Pt][Cl] [Cisplatin, reference compound]
20%: Inhibition rate on human cancer cells ([6]; H520, 1.0 μM) | Inhibition rate on human cancer cells ([2]; J82, 5.0 μM) | Inhibition rate on human cancer cells ([4]; T24, 5.0 μM) | Inhibition rate on human cancer cells (colon cancer HCT116; HCT 116, 2.5 μM)
5%: Inhibition rate on human cancer cells ([5]; A549, 1.0 μM) | Inhibition rate on human cancer cells ([6]; H520, 0.5 μM) | Inhibition rate on human cancer cells ([2]; J82, 2.5 μM) | Inhibition rate on human cancer cells (colon cancer HCT8; HCT 8, 0.25 μM) | Inhibition rate on human cancer cells (colon cancer RkO; 0.5 μM) | Inhibition rate on human cancer cells ([4]; T24, 2.5 μM) | Inhibition rate on human cancer cells (colon cancer HCT116; HCT 116, 1.0 μM) | Inhibition rate on human cancer cells ([7]; H460, 1.0 μM)
90%: Inhibition rate on human cancer cells (colon cancer HCT8; HCT 8, 5.0 μM) | Inhibition rate on human cancer cells ([7]; H460, 5.0 μM)
0%: Inhibition rate on human cancer cells ([5]; A549, 0.25 μM) | Inhibition rate on human cancer cells ([5]; A549, 0.5 μM) | Inhibition rate on human cancer cells ([6]; H520, 0.25 μM) | Inhibition rate on human cancer cells ([2]; J82, 0.25 μM) | Inhibition rate on human cancer cells ([2]; J82, 0.5 μM) | Inhibition rate on human cancer cells ([2]; J82, 1.0 μM) | Inhibition rate on human cancer cells (colon cancer RkO; 0.25 μM) | Inhibition rate on human cancer cells ([4]; T24, 0.25 μM) | Inhibition rate on human cancer cells ([4]; T24, 0.5 μM) | Inhibition rate on human cancer cells ([4]; T24, 1.0 μM) | Inhibition rate on human cancer cells (colon cancer HCT116; HCT 116, 0.25 μM) | Inhibition rate on human cancer cells (colon cancer HCT116; HCT 116, 0.5 μM) | Inhibition rate on human cancer cells ([7]; H460, 0.25 μM) | Inhibition rate on human cancer cells ([7]; H460, 0.5 μM)
50%: Inhibition rate on human cancer cells ([6]; H520, 5.0 μM) | Inhibition rate on human cancer cells (colon cancer HCT8; HCT 8, 1.0 μM) | Inhibition rate on human cancer cells (colon cancer RkO; 2.5 μM) | Inhibition rate on human cancer cells (colon cancer HCT116; HCT 116, 5.0 μM)
80%: Inhibition rate on human cancer cells ([5]; A549, 5.0 μM)
10%: Inhibition rate on human cancer cells (colon cancer HCT8; HCT 8, 0.5 μM) | Inhibition rate on human cancer cells (colon cancer RkO; 1.0 μM)
30%: Inhibition rate on human cancer cells ([5]; A549, 2.5 μM) | Inhibition rate on human cancer cells ([6]; H520, 2.5 μM) | Inhibition rate on human cancer cells ([7]; H460, 2.5 μM)
70%: Inhibition rate on human cancer cells (colon cancer HCT8; HCT 8, 2.5 μM) | Inhibition rate on human cancer cells (colon cancer RkO; 5.0 μM)

CO/C=C(/C(=O)OC)c1ccccc1COc1cc(C(F)(F)F)nc(Nc2ccc(Cl)cc2Cl)n1 [compound A, reference compound]
100%: inhibition at 2.5 µM ([1]; Homo sapiens, PC-3, 2.5 μM, read-out: Inhibition rate on human cancer cells) | inhibition at 5 µM ([1]; Homo sapiens, PC-3, 5.0 μM, read-out: Inhibition rate on human cancer cells) | inhibition at 2.5 µM ([2]; Homo sapiens, J82, 2.5 μM, read-out: Inhibition rate on human cancer cells) | inhibition at 5 µM ([2]; Homo sapiens, J82, 5.0 μM, read-out: Inhibition rate on human cancer cells) | inhibition at 1 µM ([3]; Homo sapiens, 1.0 μM, read-out: Inhibition rate on human cancer cells) | inhibition at 2.5 µM ([3]; Homo sapiens, 2.5 μM, read-out: Inhibition rate on human cancer cells) | inhibition at 5 µM ([3]; Homo sapiens, 5.0 μM, read-out: Inhibition rate on human cancer cells) | inhibition at 1 µM ([4]; Homo sapiens, T24, 1.0 μM, read-out: Inhibition rate on human cancer cells) | inhibition at 2.5 µM ([4]; Homo sapiens, T24, 2.5 μM, read-out: Inhibition rate on human cancer cells) | inhibition at 5 µM ([4]; Homo sapiens, T24, 5.0 μM, read-out: Inhibition rate on human cancer cells)
85%: inhibition at 1 µM ([1]; Homo sapiens, PC-3, 1.0 μM, read-out: Inhibition rate on human cancer cells)
95%: inhibition at 1 µM ([2]; Homo sapiens, J82, 1.0 μM, read-out: Inhibition rate on human cancer cells)
50%: inhibition at 0.5 µM ([2]; Homo sapiens, J82, 0.5 μM, read-out: Inhibition rate on human cancer cells)
0%: inhibition at 0.5 µM ([1]; Homo sapiens, PC-3, 0.5 μM, read-out: Inhibition rate on human cancer cells) | inhibition at 0.25 µM ([2]; Homo sapiens, J82, 0.25 μM, read-out: Inhibition rate on human cancer cells) | inhibition at 0.5 µM ([3]; Homo sapiens, 0.5 μM, read-out: Inhibition rate on human cancer cells) | inhibition at 0.5 µM ([4]; Homo sapiens, T24, 0.5 μM, read-out: Inhibition rate on human cancer cells)

CO/C=C(/C(=O)OC)c1ccccc1COc1cc(-c2ccc(Cl)cc2)nn1C [pyraoxystrobin]
70%: Inhibition rate on human cancer cells ([2]; J82, 0.25 μM)
100%: Inhibition rate on human cancer cells ([1]; PC-3, 0.25 μM) | Inhibition rate on human cancer cells ([1]; PC-3, 0.5 μM) | Inhibition rate on human cancer cells ([1]; PC-3, 1.0 μM) | Inhibition rate on human cancer cells ([1]; PC-3, 2.5 μM) | Inhibition rate on human cancer cells ([1]; PC-3, 5.0 μM) | Inhibition rate on human cancer cells ([2]; J82, 0.5 μM) | Inhibition rate on human cancer cells ([2]; J82, 1.0 μM) | Inhibition rate on human cancer cells ([2]; J82, 2.5 μM) | Inhibition rate on human cancer cells ([2]; J82, 5.0 μM) | Inhibition rate on human cancer cells ([3]; 0.25 μM) | Inhibition rate on human cancer cells ([3]; 0.5 μM) | Inhibition rate on human cancer cells ([3]; 1.0 μM) | Inhibition rate on human cancer cells ([3]; 2.5 μM) | Inhibition rate on human cancer cells ([3]; 5.0 μM) | Inhibition rate on human cancer cells ([4]; T24, 0.25 μM) | Inhibition rate on human cancer cells ([4]; T24, 0.5 μM) | Inhibition rate on human cancer cells ([4]; T24, 1.0 μM) | Inhibition rate on human cancer cells ([4]; T24, 2.5 μM) | Inhibition rate on human cancer cells ([4]; T24, 5.0 μM)
